This is an account of results in patent publication US12435090B2, “Compounds, pharmaceutical compositions, and methods of preparing compounds and of their use” (Repare Therapeutics Inc., priority 2021, dated 2025).

recombinant human Myt1, sequence (Q99640 whole entry): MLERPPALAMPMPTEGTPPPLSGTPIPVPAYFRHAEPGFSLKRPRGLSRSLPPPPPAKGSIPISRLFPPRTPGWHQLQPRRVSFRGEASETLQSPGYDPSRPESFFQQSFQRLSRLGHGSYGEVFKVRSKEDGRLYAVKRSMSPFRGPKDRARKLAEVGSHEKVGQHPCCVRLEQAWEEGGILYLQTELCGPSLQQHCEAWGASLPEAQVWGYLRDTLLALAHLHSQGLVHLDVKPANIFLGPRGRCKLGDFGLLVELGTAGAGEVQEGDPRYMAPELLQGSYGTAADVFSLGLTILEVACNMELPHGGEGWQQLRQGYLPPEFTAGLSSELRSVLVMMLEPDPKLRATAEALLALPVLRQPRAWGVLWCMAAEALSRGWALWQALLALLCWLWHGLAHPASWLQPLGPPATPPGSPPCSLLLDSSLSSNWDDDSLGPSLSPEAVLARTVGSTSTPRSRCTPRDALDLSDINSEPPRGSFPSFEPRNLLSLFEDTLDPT

In the assay the target is recombinant human Myt1 (Homo sapiens (Human), UniProt Q99640). The assay can be described thus: Myt1 enzymatic assay (ADP-Glo kinase assay). In kind it is biochemical. The note with it: 18 nM enzyme, 10 uM ATP. As for the experimental part:
Detection of Myt1 kinase activity utilized a recombinant human Myt1 kinase assay measuring the hydrolysis of ATP using a commercially available ADP-Glo Assay (ADP-Glo™ Kinase Assay from Promega, 10 000 assays, #V9102). […] After this, 5 μL of compounds (diluted in reaction buffer to 0.5% DMSO) was added to the microplate and the plate was spun briefly and incubated at 22° C. for 15 minutes. Ultra-Pure Adenosine Triphosphate (ATP) solution (ADP-Glo kit from Promega) was diluted in reaction buffer and 5 μL was added to the microplate, spun down briefly and incubated for 60 minutes at 30° C. […] After the 60-minute incubation, 15 µL of ADP-Glo reagent was added and the plate was spun briefly and sealed and incubated in the dark for 40 minutes at 22° C. […] Luminescence was read using the Envision (250 ms integration). The IC50 and the % max inhibition were calculated for each inhibitor compound tested.
In general terms: In ADP-Glo the light output rises with the ADP produced.
By IC50 is commonly meant the concentration needed to halve the response being measured. `Cc1ccc(O)c(C)c1-n1c(N)c(C(N)=O)c2nc(-c3nccs3)c(C)nc21` [Compound 31, 6-amino-5-(3-hydroxy-2,6-dimethyl-phenyl)-3-methyl-2-thiazol-2-yl-pyrrolo[2,3-b]pyrazine-7-carboxamide]: the IC50 was < 10 nM.

On to `Cc1ccc(O)c(C)c1-n1c(N)c(C(N)=O)c2nc(-c3nc(C)c(C)s3)cnc21` [Compound 32], for which the IC50 is < 10 nM.

`Cc1ccc(O)c(C)c1-n1c(N)c(C(N)=O)c2nc(-c3ccccn3)cnc21` [Compound 34]: the IC50 was < 10 nM.

Take `Cc1ccc(O)c(C)c1-n1c(N)c(C(N)=O)c2nc(-c3ccnc(C(F)(F)F)c3)cnc21` [Compound 35, 6-amino-5-(3-hydroxy-2,6-dimethyl-phenyl)-2-[2-(trifluoromethyl)-4-pyridyl]pyrrolo[2,3-b]pyrazine-7-carboxamide]: the IC50 is < 10 nM.

As to `Cc1ccc(O)c(C)c1-n1c(N)c(C(N)=O)c2nc(-c3cncs3)cnc21` [Compound 37], the IC50 was < 10 nM.

For `Cc1ccc(O)c(C)c1-n1c(N)c(C(N)=O)c2nc(-c3cnccn3)cnc21` [Compound 38], the IC50 was < 10 nM.

`Cc1ccc(O)c(C)c1-n1c(N)c(C(N)=O)c2nc(-c3ccns3)cnc21` [Compound 41]: the IC50 is < 10 nM.

With `Cc1c(O)ccc(Cl)c1-n1c(N)c(C(N)=O)c2nc(-c3nccs3)cnc21` [Compound 42], the IC50 was < 10 nM.

Turning to `CNC(=O)C1CCN(c2cnc3c(n2)c(C(N)=O)c(N)n3-c2c(C)ccc(O)c2C)CC1` [Compound 46, 6-amino-5-(3-hydroxy-2,6-dimethyl-phenyl)-2-[4-(methylcarbamoyl)-1-piperidyl]pyrrolo[2,3-b]pyrazine-7-carboxamide], the IC50 is < 10 nM.

As to `Cc1ccc(O)c(C)c1-n1c(N)c(C(N)=O)c2nc(-c3ccncn3)cnc21` [Compound 57], the IC50 is < 10 nM.

On to `Cc1ccc(O)c(C)c1-n1c(N)c(C(N)=O)c2nc(C3=CCC(C(=O)N(C)C)CC3)cnc21` (stereo not drawn) [Compound 58], for which the IC50 is < 10 nM.

Turning to `Cc1ccc(-c2cnc3c(n2)c(C(N)=O)c(N)n3-c2c(C)ccc(O)c2C)nc1` [Compound 61], the IC50 was < 10 nM.

In the case of `Cc1ccc(O)c(C)c1-n1c(N)c(C(N)=O)c2nc(-c3ccc(F)cn3)cnc21` [Compound 64], the IC50 is < 10 nM.

`Cc1ccc(O)c(C)c1-n1c(N)c(C(N)=O)c2nc(-c3c[nH]cn3)cnc21` [Compound 65]: the IC50 was < 10 nM.

As to `Cc1ccc(O)c(C)c1-n1c(N)c(C(N)=O)c2nc(-c3cn(C)cn3)cnc21` [Compound 76], the IC50 is < 10 nM.

Turning to `Cc1ccc(O)c(C)c1-n1c(N)c(C(N)=O)c2nc(N3CCC(C(=O)N(C)C)CC3)cnc21` [Compound 80], the IC50 was < 10 nM.

Take `Cc1ccc(O)c(C)c1-n1c(N)c(C(N)=O)c2nc(N3CCCCC3)cnc21` [Compound 81]: the IC50 is < 10 nM.

In the case of `Cc1ccc(O)c(C)c1-n1c(N)c(C(N)=O)c2nc(C3CCCCC3)cnc21` [Compound 83], the IC50 was < 10 nM.

`Cc1ccc(O)c(C)c1-n1c(N)c(C(N)=O)c2nc(N3CCCC3)cnc21` [Compound 85]: the IC50 was < 10 nM.

`Cc1ccc(O)c(C)c1-n1c(N)c(C(N)=O)c2nc(C3=CCCCC3)cnc21` [Compound 86]: the IC50 is < 10 nM.

Regarding `CC(=O)N1CCN(c2cnc3c(n2)c(C(N)=O)c(N)n3-c2c(C)ccc(O)c2C)CC1` [Compound 87], the half-maximal inhibitory concentration (IC50) was < 10 nM.

As for `CCN(CC)c1cnc2c(n1)c(C(N)=O)c(N)n2-c1c(C)ccc(O)c1C` [Compound 88], the IC50 is < 10 nM.

Regarding `Cc1ccc(O)c(C)c1-n1c(N)c(C(N)=O)c2nc(N3CC4CCC(C3)O4)cnc21` [Compound 92], the IC50 was < 10 nM.

Take `Cc1ccc(O)c(C)c1-n1c(N)c(C(N)=O)c2nc(C3CC3)c(C)nc21` [Compound 100]: the IC50 is < 10 nM.

As for `Cc1ccc(O)c(Cl)c1-n1c(N)c(C(N)=O)c2nc(C3CC3)cnc21` [Compound 104], the IC50 is < 10 nM.

Turning to `Cc1ccc(O)c(C)c1-n1c(N)c(C(N)=O)c2cc(C(C)(C)O)cnc21` [Compound 131], the IC50 is < 10 nM.

`Cc1ccc(O)c(C)c1-n1c(N)c(C(N)=O)c2cc(C(C)C)cnc21` [Compound 138]: the IC50 is < 10 nM.

As to `Cc1ccc(O)c(C)c1-n1c(N)c(C(N)=O)c2cc(Br)cnc21` [Compound 141], the IC50 was < 10 nM.

As for `Cc1ccc(O)c(C)c1-n1cc(C(N)=O)c2cc(C3CC3)cnc21` [Compound 143], the IC50 was < 10 nM.

As to `Cc1nc2c(C(N)=O)c(N)n(-c3c(Cl)ccc(O)c3C)c2nc1C` [Compound 168], the IC50 was < 10 nM.

Take `Cc1cnc(O)cc1-n1c(N)c(C(N)=O)c2nc(C)c(C)nc21` [Compound 169, 6-amino-5-(2-hydroxy-5-methyl-4-pyridyl)-2,3-dimethyl-pyrrolo[2,3-b]pyrazine-7-carboxamide]: the IC50 turned out to be 1730 nM.

In the case of `Cc1ccc(O)c(C)c1-n1c(N)c(C(N)=O)c2nc(C3CCC3)cnc21` [Compound 173, 6-amino-2-cyclobutyl-5-(3-hydroxy-2,6-dimethyl-phenyl) pyrrolo[2,3-b]pyrazine-7-carboxamide], the IC50 was < 10 nM.

Consider `Cc1ccc(O)c(C)c1-n1c(N)c(C(N)=O)c2nc(C(C)(C)F)cnc21` [Compound 178, 6-amino-2-(1-fluoro-1-methyl-ethyl)-5-(3-hydroxy-2,6-dimethyl-phenyl) pyrrolo[2,3-b]pyrazine-7-carboxamide], for which the IC50 is < 10 nM.

On to `Cc1ccc(O)c(C)c1-n1c(N)c(C(N)=O)c2cc(Br)c(C)nc21` [Compound 187], for which the IC50 is < 10 nM.

`Cc1ccc2c(C(N)=O)c(N)n(-c3c(C)ccc(O)c3C)c2n1` [Compound 193]: the IC50 is < 10 nM.

Turning to `Cc1ccc(O)c(C)c1-n1c(N)c(C(N)=O)c2nc(C3(C(F)(F)F)CC3)cnc21` [Compound 198, 6-amino-5-(3-hydroxy-2,6-dimethyl-phenyl)-2-[1-(trifluoromethyl)cyclopropyl]pyrrolo[2,3-b]pyrazine-7-carboxamide], the IC50 is < 10 nM.

Regarding `C=C(C)c1cnc2c(n1)c(C(N)=O)c(N)n2-c1c(C)ccc(O)c1C` [Compound 202], the half-inhibitory concentration (IC50) is < 10 nM.

Consider `Cc1ccc(O)c(C)c1-n1c(N)c(C(N)=O)c2nc(C(N)=O)cnc21` [Compound 220, 6-amino-5-(3-hydroxy-2,6-dimethyl-phenyl) pyrrolo[2,3-b]pyrazine-2,7-dicarboxamide], for which the IC50 is < 10 nM.

Turning to `Cc1ccc(O)c(C)c1-n1c(N)c(C(N)=O)c2ncc(C#CCC3CCOCC3)nc21` [Compound 222], the IC50 was < 10 nM.

As for `Cc1ccc(O)c(C)c1-n1c(N)c(C(N)=O)c2ncc(C#CC3(O)CCOCC3)nc21` [Compound 231], the IC50 was < 10 nM.

Regarding `Cc1ccc(O)c(C)c1-n1c(N)c(C(N)=O)c2ncc(C#CC3(O)CCC(F)(F)CC3)nc21` [Compound 242, 6-amino-3-[2-(4,4-difluoro-1-hydroxy-cyclohexyl)ethynyl]-5-(3-hydroxy-2,6-dimethyl-phenyl) pyrrolo[2,3-b]pyrazine-7-carboxamide], the IC50 is < 10 nM.

In the case of `Cc1ccc(O)c(C)c1-n1c(N)c(C(N)=O)c2nc(-c3nc4ccccc4s3)cnc21` [Compound 248], the IC50 was < 10 nM.

On to `Cc1ccc(O)c(C)c1-n1c(N)c(C(N)=O)c2nc(-c3ccnnc3)cnc21` [Compound 250], for which the IC50 was < 10 nM.

Regarding `C=Cc1cnc2c(n1)c(C(N)=O)c(N)n2-c1c(C)ccc(O)c1C` [Compound 259], the IC50 is < 10 nM.

In the case of `Cc1ncc(O)cc1-n1c(N)c(C(N)=O)c2nc(C)c(C)nc21` [Compound 262], the IC50 was 3230 nM.

For `NC(=O)c1c(N)n(-c2cccc3[nH]ncc23)c2nccnc12` [Compound 277, 6-amino-5-(1H-indazol-4-yl)pyrrolo[2,3-b]pyrazine-7-carboxamide], the IC50 was 1380 nM.

`Cc1ccc(O)c(C)c1-n1c(N)c(S(C)(=O)=O)c2nc(-c3cnccn3)cnc21` [Compound 278]: the IC50 is > 5000 nM.

Consider `Cc1ccc(O)c(Br)c1-n1c(N)c(C(N)=O)c2cc(Cl)cnc21` [Compound 289], for which the IC50 is < 10 nM.

For `Cc1ccc(O)c(C)c1-n1c(N)c(C(N)=O)c2cc(-c3ccccn3)cnc21` [Compound 295], the IC50 was < 10 nM.

`Cc1ccc(O)c(C)c1-n1c(N)c(C(N)=O)c2cc(N3CCCC3=O)cnc21` [Compound 298]: the IC50 is < 10 nM.

As to `Cc1ccc(O)c(C)c1-n1c(N)c(C(N)=O)c2cc(C3=CCOCC3)cnc21` [Compound 304], the IC50 is < 10 nM.

In the case of `Cc1ccc(O)c(C)c1-n1c(N)c(C(N)=O)c2cc(-c3nccs3)cnc21` [Compound 308], the IC50 was < 10 nM.

Consider `Cc1ccc(O)c(C)c1-n1c(N)c(C(N)=O)c2cc(S(=O)(=O)C3CC3)cnc21` [Compound 311], for which the IC50 is < 10 nM.

With `Cc1ccc(O)c(C)c1-n1c(N)c(C(N)=O)c2cc(C#N)cnc21` [Compound 312], the IC50 was < 10 nM.

With `Cc1ccc(O)c(C)c1-n1c(N)c(C(N)=O)c2c(C)c(Cl)cnc21` [Compound 313], the IC50 is < 10 nM.

Regarding `Cc1ccc(O)c(C)c1-n1c(N)c(C(N)=O)c2c(Cl)c(Cl)cnc21` [Compound 316], the IC50 is < 10 nM.

As for `Cc1ccc(O)c(C)c1-n1c(N)c(C(N)=O)c2cc(I)cnc21` [Compound 319], the IC50 is < 10 nM.

As for `Cc1ccc(O)c(Cl)c1-n1c(N)c(C(N)=O)c2cc(Cl)cnc21` [Compound 327], the IC50 was < 10 nM.

`Cc1ccc(O)c(C)c1-n1c(N)c(C(N)=O)c2cccnc21` [Compound 328]: the IC50 was < 10 nM.

Take `Cc1ccc2[nH]ncc2c1-n1c(N)c(C(N)=O)c2nccnc21` [Compound 329]: the IC50 came out at 1320 nM.
